The conditions of data set [1]: mouse, in vivo, po, 10 mg/kg, 24 h.
Data set [2] is described as follows: in vivo. To be noted: Swiss outbred, mouse, po, 10 mg/kg.
A short description of data set [3]: in vivo. Conditions: Swiss outbred, mouse, iv, 3 mg/kg.
Data set [4] in a line: in vivo. To be noted: Swiss outbred, mouse, iv, 3 mg/kg. The source holds these as a separate data set.
The next data set can be described thus: physchem. To be noted: buffer, pH 7.4.
Data set [5] in a line: in vivo. Conditions: Swiss outbred, mouse, iv, 3 mg/kg. The source holds these as a separate data set.

The AUC is the area under the concentration-time curve, a measure of exposure. The term Cmax denotes the maximum level reached in the sampled fluid or tissue. Broadly, the Vd is the apparent volume that relates the amount in the body to the concentration in plasma or blood. A lower Vd goes with little distribution into tissue. Broadly, the clearance is the rate of elimination divided by the concentration. Read a high clearance as a high capacity for elimination. A word on the chromatographic logD: it is a lipophilicity value derived from retention on a column. A word on the AUC(0-t): it is exposure summed from dosing to a finite time, without extrapolation to infinity.

Regarding `C=CCn1c(=O)c2cnc(Nc3ccc(N4CCN(C)CC4)cc3)nc2n1-c1cccc(C(C)(C)O)n1` [ADAVOSERTIB], in data set [1], the AUC is 0.067 µM·h. This molecule also had a Cmax at 24 h in “in vivo [2]” of 26 nM. Besides, the Vd at 24 h in “in vivo [3]” was found to be 1.27 L/kg. In addition, the clearance at 24 h in the data set “in vivo [4]” worked out at 75 mL/min/kg. In “physchem”, the chromatographic logD amounted to 3.4. Moreover, the AUC(0-t) at 24 h in the data set “in vivo [5]” was 0.21 µM·h.

The record behind these values is ChEMBL document CHEMBL6134862, “Discovery of WEE1 Kinase Inhibitors with Potent Activity against Patient-Derived, Metastatic Colorectal Cancer Organoids” (J Med Chem, 2025).
